Laboratory results from patent US20180327367A1, “MACROCYCLIC BROAD SPECTRUM ANTIBIOTICS” (priority 2015, published 2018).
Values after ≈ are worked out from the molar mass of the structure shown. Read-outs that look alike come from different tables or passages of the source.

What was measured:
[1] = tested on: Methicillin Resistant Staphylococcus aureus strain USA 300, NRS384; experiment: Minimum inhibitory concentration, broth micro-dilution (CLSI), S. aureus; type: cell-based; conditions: 35° C., 22 hours; for MIC: Staphylococcus aureus, MRSA / NRS 384 / USA300, 22 h
Summary of the method: (§1)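 Ten-point 2-fold series began at 4 μg/mL in protocol 2 and 0.5 μg/mL in protocol 3, in cation-adjusted MHB plus 0.002% Tween-80. Bacteria added to OD600 0.0005 final and incubated at 35° C for 22 hours per CLSI microdilution.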

[2] = molecular target: T1, SpsB (Staphylococcus aureus signal peptidase) (Staphylococcus aureus, UniProt P0A070); experiment: cell-based; type: biochemical; conditions: SpsB IC50, whole-cell S. aureus (USA300 background, overexpressing SpsB) as SpsB source; fluorogenic peptide substrate, kinetic read 30 min
T1 construct: This assay uses a suspension of Staphylococcus aureus cells as a source of SpsB instead of recombinant SpsB protein; endogenous in cells; host or cells: S. aureus, USA300 background, overexpressing SpsB (whole-cell suspension from frozen pellets)
Summary of the method: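 Cleavage of an internally quenched (Dabcyl)βAla-KPAKAAE(Edans) peptide, added as 20 μM solution mixed 1:1 with cells, was followed for 30 min at 340/490 nm. SpsB came from a suspension of SpsB-overexpressing USA300 S. aureus in Tween-80-containing PBS buffer. Slopes plotted against 3-fold compound dilutions gave IC50.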

[3] = tested on: Escherichia coli MC4100 harboring the IMP4213 (E. coli IMP); experiment: microbe, parasite or virus in culture; type: cell-based; conditions: 35° C., 22 hours; for MIC: Escherichia coli, 22 h, read-out: MIC (μg/mL) E. coli IMP, E. coli MC4100 IMP4213, increased outer-membrane permeability
Summary of the method: as §1

[4] = tested on: Escherichia coli ATCC 25922; experiment: Minimum inhibitory concentration, broth micro-dilution (CLSI), E. coli; type: cell-based; conditions: 35° C., 22 hours; for MIC: Escherichia coli, ATCC25922, 22 h
[5] = MRSA USA 300 NRS384, read-out: MIC (μg/mL) S. aureus
[6] = E. coli ATCC 25922, read-out: MIC (μg/mL) E. coli
[7] = read-out: MIC (μg/mL) S. aureus, MRSA USA 300 NRS384
[8] = read-out: MIC (μg/mL) E. coli, E. coli ATCC 25922

T1 sequence (P0A070 whole entry): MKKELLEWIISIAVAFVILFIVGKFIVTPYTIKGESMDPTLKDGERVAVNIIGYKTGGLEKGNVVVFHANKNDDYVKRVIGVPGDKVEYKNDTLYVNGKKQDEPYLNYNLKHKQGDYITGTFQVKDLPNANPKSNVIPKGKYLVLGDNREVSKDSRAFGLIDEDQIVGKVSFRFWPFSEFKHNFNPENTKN

| Structure (SMILES) | MIC [1, 5] [µg/mL] | IC50 [2] [nM] | MIC [3] [µg/mL] | MIC [4, 6] [µg/mL] | MIC [1, 7] [µg/mL] | MIC [4, 8] [µg/mL] | MIC (μg/mL) S. aureus ([1]; MRSA USA 300 NRS384) [µg/mL] | MIC (μg/mL) E. coli IMP ([3]; E. coli MC4100 IMP4213, increased outer-membrane permeability) [µg/mL] | MIC (μg/mL) E. coli ([4]; E. coli ATCC 25922) [µg/mL] |
| --- | --- | --- | --- | --- | --- | --- | --- | --- | --- |
| CCCCCCCCCCCC(=O)N[C@@H](CCCO)C(=O)N(C)[C@@H]1C(=O)N[C@@H](C)C(=O)N[C@H](C(=O)NCC#N)Cc2ccc(OCCN)c(c2)-c2cc1ccc2OCCN [Compound 264] | 0.13 (≈ 0.156 µM) | 2 | 0.094 (≈ 0.113 µM) | 16 (≈ 19.2 µM) | – | – | – | – | – |
| CCCCCCCCCCNCCC(=O)N[C@@H](CCCCN)C(=O)N(C)[C@@H]1C(=O)N[C@@H](C)C(=O)N[C@H](C(=O)NC(C)C#N)Cc2ccc(OCCN)c(c2)-c2cc1ccc2OCCN (some centres unmarked) [Compound 415] | – | 14 | 4 (≈ 4.49 µM) | – | > 4 | 64 (≈ 71.8 µM) | – | – | – |
| CCc1ccc(-c2ncc(C(=O)N[C@@H](CCN)C(=O)N(C)[C@@H]3C(=O)N[C@@H](C)C(=O)N[C@H](C(=O)NCC#N)Cc4ccc(OCCN)c(c4)-c4cc3ccc4OCCN)c(C)n2)cc1 [Compound 155] | 0.13 (≈ 0.151 µM) | 2.5 | 0.0098 (≈ 0.0114 µM) | 0.44 (≈ 0.51 µM) | – | – | – | – | – |
| CCCCc1ccc(C(=O)N[C@H](CCC)C(=O)N[C@@H](CCN)C(=O)N(C)[C@@H]2C(=O)N[C@@H](C)C(=O)N[C@H](C(=O)NCC#N)Cc3ccc(OCCN)c(c3)-c3cc2ccc3OCCN)c(C)c1 [Compound 354] | – | 1.8 | 0.063 (≈ 0.0691 µM) | – | 0.25 (≈ 0.274 µM) | 8 (≈ 8.78 µM) | – | – | – |
| CCCCCCCCCC(=O)NCCC(=O)N[C@@H](CCN)C(=O)N(C)[C@@H]1C(=O)N[C@@H](C)C(=O)N[C@H](C(=O)NCC#N)Cc2ccc(OCCN)c(c2)-c2cc1ccc2OCCN [Compound 367] | 0.094 (≈ 0.109 µM) | 0.88 | 0.13 (≈ 0.151 µM) | 12 (≈ 13.9 µM) | – | – | – | – | – |
| CCCCc1ccc(NC(=O)CCC(=O)N[C@@H](CCN)C(=O)N(C)[C@@H]2C(=O)N[C@@H](C)C(=O)N[C@H](C(=O)NCC#N)Cc3ccc(OCCN)c(c3)-c3cc2ccc3OCCN)c(C)c1 [Compound 377] | 0.13 (≈ 0.147 µM) | 1 | 0.13 (≈ 0.147 µM) | 8 (≈ 9.06 µM) | – | – | – | – | – |
| CCCCCCCc1cc(C)c(C(=O)N[C@@H](CCN)C(=O)N(C)[C@@H]2C(=O)N[C@@H](C)C(=O)N[C@H](C(=O)NCC#N)Cc3ccc(OCCN)c(c3)-c3cc2ccc3OCCN)c(F)c1 [Compound 188] | 0.047 (≈ 0.0539 µM) | 0.67 | 0.018 (≈ 0.0206 µM) | 0.22 (≈ 0.252 µM) | – | – | – | – | – |
| Cc1cc(C2CC2c2ccccc2)ccc1C(=O)N[C@@H](CCN)C(=O)N(C)[C@@H]1C(=O)N[C@@H](C)C(=O)N[C@H](C(=O)NCC#N)Cc2ccc(OCCN)c(c2)-c2cc1ccc2OCCN (mixture of isomers) [Compound 440] | – | 0.81 | – | – | – | – | 0.19 | 0.063 | 8 |
| CCCCCCCCCCCCCC(=O)N(C)[C@@H]1C(=O)N[C@@H](C)C(=O)N[C@H](C(=O)NCC#N)Cc2ccc(OCCN)c(c2)-c2cc1ccc2OCCN [Compound 475] | 1 (≈ 1.34 µM) | 18 | 0.5 (≈ 0.668 µM) | 6 (≈ 8.02 µM) | – | – | – | – | – |
| CCCCCCCCCCCCCC(=O)N[C@@H](CCCN)C(=O)N(C)[C@@H]1C(=O)N[C@@H](C)C(=O)N[C@H](C(=O)NCC#N)Cc2ccc(OCCN)c(c2)-c2cc1ccc2OCCN [Compound 336] | 0.063 (≈ 0.0731 µM) | < 0.5 | 0.023 (≈ 0.0267 µM) | 0.25 (≈ 0.29 µM) | – | – | – | – | – |
| CCCCc1cnc(-c2ccc(C(=O)N[C@@H](CCN)C(=O)N(C)[C@@H]3C(=O)N[C@@H](C)C(=O)N[C@H](C(=O)NCC#N)Cc4ccc(OCCN)c(c4)-c4cc3ccc4OCCN)c(C)c2)nc1 [Compound 175] | 0.13 (≈ 0.146 µM) | 0.76 | 0.0078 (≈ 0.00876 µM) | 0.5 (≈ 0.562 µM) | – | – | – | – | – |
| Cc1cc(C#Cc2ccccc2)ccc1C(=O)N[C@@H](CCN)C(=O)N(C)[C@@H]1C(=O)N[C@@H](C)C(=O)N[C@H](C(=O)NCC#N)Cc2ccc(OCCN)c(c2)-c2cc1ccc2OCCN [Compound 425] | 0.047 (≈ 0.0549 µM) | 1.1 | 0.018 (≈ 0.021 µM) | 0.63 (≈ 0.736 µM) | – | – | – | – | – |
| CCCCc1ccc(C(=O)N[C@H](CCO)C(=O)N[C@@H](CCN)C(=O)N(C)[C@@H]2C(=O)N[C@@H](C)C(=O)N[C@H](C(=O)NCC#N)Cc3ccc(OCCN)c(c3)-c3cc2ccc3OCCN)c(C)c1 [Compound 381] | – | 2.9 | 0.5 (≈ 0.548 µM) | – | 0.5 (≈ 0.548 µM) | 64 (≈ 70.1 µM) | – | – | – |
| CCCCCCCOc1ccc(C(=O)N[C@@H](CCN)C(=O)N(C)[C@@H]2C(=O)N[C@@H](C)C(=O)N[C@H](C(=O)NCC#N)Cc3ccc(OCCN)c(c3)-c3cc2ccc3OCCN)c(C(F)F)c1 [Compound 442] | 0.063 (≈ 0.0695 µM) | 2.9 | 0.0078 (≈ 0.00861 µM) | 0.19 (≈ 0.21 µM) | – | – | – | – | – |
| CCCCCCCCC(=O)N[C@@H](CCN)C(=O)N(C)[C@@H]1C(=O)N[C@@H](C)C(=O)N[C@H](C(=O)NCC#N)Cc2ccc(OCCN)c(c2)-c2cc1ccc2OCCN [Compound 106] | 0.38 (≈ 0.488 µM) | 1.7 | 0.13 (≈ 0.167 µM) | 24 (≈ 30.8 µM) | – | – | – | – | – |
| C[C@@H]1NC(=O)[C@@H](N(C)C(=O)[C@H](CCCCN)NC(=O)c2ccc(-c3ccc(C(C)(C)C)cc3)cc2)c2ccc(OCCN)c(c2)-c2cc(ccc2OCCN)C[C@@H](C(=O)NCC#N)NC1=O [Compound 108] | – | 1.2 | 0.047 (≈ 0.0521 µM) | – | 0.063 (≈ 0.0698 µM) | 0.5 (≈ 0.554 µM) | – | – | – |
| CCCCc1ccc(C(=O)N[C@@H](CCCN)C(=O)N(C)[C@@H]2C(=O)N[C@@H](C)C(=O)N[C@H](C(=O)NCC#N)Cc3ccc(OCCN)c(c3)-c3cc2ccc3OCCN)cc1 [Compound 127] | 0.5 (≈ 0.616 µM) | 5.9 | 0.063 (≈ 0.0776 µM) | 4 (≈ 4.93 µM) | – | – | – | – | – |
| CCCCCCCOc1ccc(C(=O)N[C@@H](CCN)C(=O)N(C)[C@@H]2C(=O)N[C@@H](C)C(=O)N[C@H](C(=O)NCC#N)Cc3ccc(OCCN)c(c3)-c3cc2ccc3OCCN)c(C(F)(F)F)c1 [Compound 273] | 0.031 (≈ 0.0335 µM) | 0.6 | 0.016 (≈ 0.0173 µM) | 0.5 (≈ 0.541 µM) | – | – | – | – | – |
| CCCCCCCCNCCCCC(=O)N(C)[C@@H]1C(=O)N[C@@H](C)C(=O)N[C@H](C(=O)NCC#N)Cc2ccc(OCCN)c(c2)-c2cc1ccc2OCCN [Compound 134] | 1.5 (≈ 2 µM) | 3.5 | > 4 | > 64 | – | – | – | – | – |
| CCCCCCCCCCC(=O)N[C@@H](CCN)C(=O)N(C)[C@@H]1C(=O)N[C@@H](C)C(=O)N[C@H](C(=O)NCC#N)Cc2ccc(OCCN)c(c2)-c2cc1ccc2OCCN [Compound 104] | 0.047 (≈ 0.0583 µM) | 0.5 | 0.023 (≈ 0.0285 µM) | 4 (≈ 4.96 µM) | – | – | – | – | – |
| CCCCCCCCCCCCCC(=O)N[C@@H](CCCCN)C(=O)N(C)[C@@H]1C(=O)N[C@@H](C)C(=O)N[C@H](C(=O)NCC#N)Cc2ccc(OCCN)c(c2)-c2cc1ccc2OCCN [Compound 334] | < 0.063 | 1.3 | < 0.063 | 0.5 (≈ 0.571 µM) | – | – | – | – | – |
| CCCCCCCc1cc(C)c(C(=O)N[C@@H](CCN)C(=O)N(C)[C@@H]2C(=O)N[C@@H](C)C(=O)N[C@H](C(=O)NCC#N)Cc3ccc(OCCN)c(c3)-c3cc2ccc3OCCN)cc1F [Compound 203] | 0.031 (≈ 0.0355 µM) | 0.72 | 0.012 (≈ 0.0138 µM) | 0.13 (≈ 0.149 µM) | – | – | – | – | – |
| CCCCc1ccc(Oc2ncc(C(=O)N[C@@H](CCN)C(=O)N(C)[C@@H]3C(=O)N[C@@H](C)C(=O)N[C@H](C(=O)NCC#N)Cc4ccc(OCCN)c(c4)-c4cc3ccc4OCCN)c(C)n2)cc1 [Compound 306] | 0.031 (≈ 0.0342 µM) | 0.69 | 0.0078 (≈ 0.00861 µM) | 1 (≈ 1.1 µM) | – | – | – | – | – |
